Experimental data as given in the NIST ThermoML archive (doi:10.1021/je800930v).

Tests used:
[1] = xn = mol fraction of the nth substance listed; conditions: 101 kPa, Liquid
[2] = 101 kPa, Liquid

O=C(O)C1CC1 [cyclopropanecarboxylic acid] + CCCO
[1]
Conditions | mass density, 298.15 K [kg/m3] | mass density, 308.15 K [kg/m3] | mass density, 318.15 K [kg/m3] | mass density, 328.15 K [kg/m3] | mass density, 338.15 K [kg/m3] | viscosity, 298.15 K [mPa·s] | viscosity, 308.15 K [mPa·s] | viscosity, 318.15 K [mPa·s] | viscosity, 328.15 K [mPa·s] | viscosity, 338.15 K [mPa·s]
x1 = 0.1 | 832.12 | 823.73 | 815.19 | 806.46 | 797.48 | 2.118 | 1.667 | 1.325 | 1.068 | 0.87
x1 = 0.2 | 863.75 | 855.12 | 846.35 | 837.42 | 828.26 | 2.33 | 1.833 | 1.451 | 1.169 | 0.953
x1 = 0.3 | 894.25 | 885.41 | 876.46 | 867.36 | 858.07 | 2.568 | 2.002 | 1.583 | 1.276 | 1.041
x1 = 0.4138 | 927.62 | 918.58 | 909.45 | 900.17 | 890.75 | 2.82 | 2.19 | 1.733 | 1.396 | 1.141
x1 = 0.5001 | 952.13 | 942.95 | 933.7 | 924.34 | 914.85 | 2.988 | 2.317 | 1.834 | 1.481 | 1.211
x1 = 0.6 | 979.77 | 970.45 | 961.07 | 951.61 | 942.03 | 3.14 | 2.437 | 1.929 | 1.56 | 1.282
x1 = 0.7 | 1006.34 | 996.88 | 987.37 | 977.81 | 968.16 | 3.235 | 2.517 | 2.002 | 1.626 | 1.342
x1 = 0.8 | 1032.24 | 1022.8 | – | 1003.51 | 993.78 | 3.299 | 2.574 | 2.06 | 1.678 | 1.392
x1 = 0.9 | 1057.82 | 1048.15 | 1038.38 | 1028.6 | 1018.78 | 3.316 | 2.617 | 2.092 | 1.713 | 1.429
x1 = 1 | 1082.92 | 1072.97 | 1063.04 | 1053.12 | 1043.2 | 3.306 | 2.603 | 2.102 | 1.739 | 1.459

O=C(O)C1CC1 [cyclopropanecarboxylic acid] + CCO
[1]
Conditions | mass density, 298.15 K [kg/m3] | mass density, 308.15 K [kg/m3] | mass density, 318.15 K [kg/m3] | mass density, 328.15 K [kg/m3] | viscosity, 298.15 K [mPa·s] | viscosity, 308.15 K [mPa·s] | viscosity, 318.15 K [mPa·s] | viscosity, 328.15 K [mPa·s]
x1 = 0.0787 | 820.26 | 811.57 | 802.61 | 793.34 | 1.272 | 1.043 | 0.865 | 0.723
x1 = 0.161 | 853.87 | 844.96 | 835.92 | 826.69 | 1.469 | 1.201 | 0.99 | 0.825
x1 = 0.2475 | 886.51 | 877.38 | 868.1 | 858.68 | 1.711 | 1.388 | 1.136 | 0.947
x1 = 0.3384 | 917.74 | 908.48 | 899.1 | 889.59 | 1.985 | 1.596 | 1.299 | 1.073
x1 = 0.4341 | 947.8 | 938.44 | 928.98 | 919.39 | 2.279 | 1.814 | 1.47 | 1.208
x1 = 0.535 | 976.75 | 967.28 | 957.74 | 948.09 | 2.562 | 2.029 | 1.636 | 1.342
x1 = 0.6415 | 1004.67 | 995.1 | 985.47 | 975.77 | 2.818 | 2.225 | 1.789 | 1.467
x1 = 0.7542 | 1031.56 | 1021.89 | 1012.17 | 1002.41 | 3.035 | 2.391 | 1.895 | 1.557
x1 = 0.8734 | 1057.73 | 1047.94 | 1038.12 | 1028.3 | 3.204 | 2.532 | 2.024 | 1.674
x1 = 1 | 1082.92 | 1072.97 | 1063.04 | 1053.12 | 3.306 | 2.603 | 2.102 | 1.739

CCCO [propan-1-ol]
[2]
Conditions | mass density [kg/m3] | viscosity [mPa·s]
298.15 K | 799.6 | 1.955
308.15 K | 791.49 | 1.538
318.15 K | 783.22 | 1.224
328.15 K | 774.73 | 0.986
338.15 K | 765.98 | 0.801

O=C(O)C1CC1 [cyclopropanecarboxylic acid]
[2]
Conditions | mass density [kg/m3] | viscosity [mPa·s]
298.15 K | 1082.92 | 3.306
308.15 K | 1072.97 | 2.603
318.15 K | 1063.04 | 2.102
328.15 K | 1053.12 | 1.739
338.15 K | 1043.2 | 1.459

O=C(O)C1CC1 [cyclopropanecarboxylic acid] + CCCCO
[1]
Conditions | mass density, 298.15 K [kg/m3] | mass density, 308.15 K [kg/m3] | mass density, 318.15 K [kg/m3] | mass density, 328.15 K [kg/m3] | mass density, 338.15 K [kg/m3] | viscosity, 298.15 K [mPa·s] | viscosity, 308.15 K [mPa·s] | viscosity, 318.15 K [mPa·s] | viscosity, 328.15 K [mPa·s] | viscosity, 338.15 K [mPa·s]
x1 = 0.1 | 831.84 | 823.84 | 815.72 | 807.43 | 798.92 | 2.672 | 2.064 | 1.615 | 1.289 | 1.031
x1 = 0.2 | 858.24 | 850.01 | 841.64 | 833.15 | 824.46 | 2.782 | 2.145 | 1.689 | 1.339 | 1.081
x1 = 0.3 | 884.97 | 876.51 | 867.95 | 859.26 | 850.39 | 2.936 | 2.26 | 1.779 | 1.416 | 1.145
x1 = 0.4 | 912.03 | 903.36 | 894.6 | 885.74 | 876.73 | 3.091 | 2.374 | 1.863 | 1.488 | 1.207
x1 = 0.5 | 939.3 | 930.44 | 921.51 | 912.47 | 903.33 | 3.217 | 2.475 | 1.944 | 1.556 | 1.266
x1 = 0.6 | 966.97 | 957.92 | 948.81 | 939.61 | 930.34 | 3.319 | 2.558 | 2.016 | 1.62 | 1.324
x1 = 0.6987 | 994.72 | 985.5 | 976.22 | 966.86 | 957.46 | 3.386 | 2.616 | 2.079 | 1.671 | 1.37
x1 = 0.7996 | 1023.6 | 1014.15 | 1004.68 | 995.17 | 985.6 | 3.401 | 2.634 | 2.11 | 1.708 | 1.41
x1 = 0.9 | 1053 | 1043.31 | 1033.63 | 1023.94 | 1014.21 | 3.362 | 2.628 | 2.109 | 1.723 | 1.432
x1 = 1 | 1082.92 | 1072.97 | 1063.04 | 1053.12 | 1043.2 | 3.306 | 2.603 | 2.102 | 1.739 | 1.459

CO [methanol] + O=C(O)C1CC1
[1], x2 = 0
Conditions | mass density [kg/m3] | viscosity [mPa·s]
298.15 K | 787.01 | 0.556
308.15 K | 777.54 | 0.484
318.15 K | 767.98 | 0.424
328.15 K | 758.28 | 0.372

CCO [ethanol]
[2]
Conditions | mass density [kg/m3] | viscosity [mPa·s]
298.15 K | 785.44 | 1.097
308.15 K | 776.78 | 0.908
318.15 K | 767.94 | 0.756
328.15 K | 758.92 | 0.634

O=C(O)C1CC1 [cyclopropanecarboxylic acid] + CO
[1]
Conditions | mass density, 298.15 K [kg/m3] | mass density, 308.15 K [kg/m3] | mass density, 318.15 K [kg/m3] | mass density, 328.15 K [kg/m3] | viscosity, 298.15 K [mPa·s] | viscosity, 308.15 K [mPa·s] | viscosity, 318.15 K [mPa·s] | viscosity, 328.15 K [mPa·s]
x1 = 0.1 | 846.5 | 837.02 | 827.45 | 817.74 | 0.773 | 0.651 | 0.572 | 0.499
x1 = 0.2 | 895.02 | 885.53 | 875.84 | 866.23 | 1.052 | 0.886 | 0.753 | 0.645
x1 = 0.3 | 935.16 | 925.62 | 916 | 906.25 | 1.392 | 1.151 | 0.965 | 0.816
x1 = 0.3999 | 968.42 | 958.83 | 949.18 | 939.42 | 1.778 | 1.451 | 1.199 | 1
x1 = 0.4994 | 996.21 | 986.56 | 976.86 | 967.07 | 2.189 | 1.765 | 1.44 | 1.191
x1 = 0.5989 | 1019.49 | 1009.79 | 1000.06 | 990.24 | 2.557 | 2.029 | 1.641 | 1.349
x1 = 0.7001 | 1039.41 | 1029.65 | 1019.87 | 1010.04 | 2.887 | 2.227 | 1.825 | 1.494
x1 = 0.8001 | 1056.17 | 1046.35 | 1036.53 | 1026.65 | 3.139 | 2.449 | 1.963 | 1.604
x1 = 0.9 | 1070.57 | 1060.68 | 1050.81 | 1040.92 | 3.298 | 2.553 | 2.047 | 1.678
x1 = 1 | 1082.92 | 1072.97 | 1063.04 | 1053.12 | 3.306 | 2.603 | 2.102 | 1.739

CCO [ethanol] + O=C(O)C1CC1
[1], x2 = 0
Conditions | mass density [kg/m3] | viscosity [mPa·s]
298.15 K | 785.44 | 1.097
308.15 K | 776.78 | 0.908
318.15 K | 767.94 | 0.756
328.15 K | 758.92 | 0.634

CCCO [propan-1-ol] + O=C(O)C1CC1
[1], x2 = 0
Conditions | mass density [kg/m3] | viscosity [mPa·s]
298.15 K | 799.6 | 1.955
308.15 K | 791.49 | 1.538
318.15 K | 783.22 | 1.224
328.15 K | 774.73 | 0.986
338.15 K | 765.98 | 0.801

CCCCO [butan-1-ol] + O=C(O)C1CC1
[1], x2 = 0
Conditions | mass density [kg/m3] | viscosity [mPa·s]
298.15 K | 805.8 | 2.588
308.15 K | 798.08 | 1.991
318.15 K | 790.22 | 1.555
328.15 K | 782.17 | 1.228
338.15 K | 773.88 | 0.981

CO [methanol]
[2]
Conditions | mass density [kg/m3] | viscosity [mPa·s]
298.15 K | 787.01 | 0.556
308.15 K | 777.54 | 0.484
318.15 K | 767.98 | 0.424
328.15 K | 758.28 | 0.372

CCCCO [butan-1-ol]
[2]
Conditions | mass density [kg/m3] | viscosity [mPa·s]
298.15 K | 805.8 | 2.588
308.15 K | 798.08 | 1.991
318.15 K | 790.22 | 1.555
328.15 K | 782.17 | 1.228
338.15 K | 773.88 | 0.981
